# Where two headings read alike, the source gives them in different places.
# Experiments:
# [1] = for endpoint symptom difference Cohen's d / remission NNT: below median iI-cI activation
# Text: fMRI task and acquisition parameters: The emotional conflict task is a well-characterized paradigm^17,18, that induces emotional conflict through pairing fearful and happy faces with overlaid congruent or incongruent emotion words (participants identify facial expression using a keypad).
# fMRI preprocessing and first-level modeling: For the emotional conflict task, the contrasts of interest were incongruent versus congruent trials (conflict) and post-incongruent incongruent trials versus post-congruent incongruent trials (an established measure of conflict regulation)^11,13,17,18.
# Statistical analyses: All moderation analyses were conducted under an intention-to-treat framework, incorporating all randomized patients after removing those with excessive head motion or low task accuracy. As such, we employed linear mixed models both for the voxelwise neuroimaging data, as well as follow-up analyses on extracted brain signals, while fully controlling for any potential differences due to site of acquisition. Whole-brain voxelwise correction for multiple comparisons was performed at p<0.05 based on the false discovery rate.
# Emotional conflict task: This well-characterized paradigm assesses both emotional conflict and emotional conflict regulation^3,4. Each trial involved presentation of an emotional face with either a fearful or happy expression, drawn from the set of Ekman & Friesen^5, with an overlaid emotion word (“FEAR” or “HAPPY”). Participants were instructed to identify the facial emotion with a key press, while trying to ignore the emotion word. The task consisted of 148 trials, with stimuli presented for 1000 milliseconds (ms) in a fast event-related design. Interstimulus intervals were 3000-5000 ms in a pseudo-randomized order counterbalanced for facial expression, gender, word, and response button. Stimuli were either congruent (e.g. fearful face with “FEAR”) or incongruent (e.g. fearful face with “HAPPY”), and stimuli were furthermore balanced to achieve an equal fraction of current and prior trial congruency, while ensuring no direct stimulus repetitions. Prior to performance of the task during neuroimaging, all participants underwent a practice version to ensure task proficiency was reached (minimum 80% accuracy) and the task instructions were understood. The neuroimaging task lasted 13 minutes and 14 seconds.
# We constrained analyses to a search space defined by a whole-brain mask constructed from: a) a 30% probabilistic voxelwise threshold derived from spatially normalized, segmented binary gray matter images from an independent sample of healthy comparison participants^9,10; and b) a conjunction map of adequate signal coverage across study scanners constructed by concatenating the binarized individual-level average map of all task experimental conditions within participants acquired at each scanner, thresholding at a minimum of 50% coverage within each scanner sample, and then conjoining these maps across all scanners. Thus, the final search space was a function of both adequate signal coverage across all study scanners as well as a probabilistic assignment to the brain's gray matter. At each voxel within this search space, the moderating effect of baseline brain activation (mean-centered) was examined using a longitudinal linear mixed model implemented in the nlme R package.^14 Modeled effects included a random and fixed intercept, fixed effects of time, time×treatment arm, 4 mean-centered, dummy-coded scanner variables corresponding to: a) Columbia University scanner 1 vs. UT Southwestern scanner; b) Columbia University scanner 2 vs. UT Southwestern scanner; c) Massachusetts General Hospital scanner vs. UT Southwestern scanner; and d) University of Michigan scanner vs. UT Southwestern scanner, treatment arm×time×brain activation, and all model variables in interaction with each of the 4 site variables.
# [2] = EMBARC randomized trial, sertraline versus placebo, HAMD17 outcome; assay type: in vivo, human; conditions: all patients
# Text: Assessments and treatment protocol: The primary clinical outcome was total scores on the Hamilton Rating Scale for Depression 17-item (HAMD17)^24,25, administered at each study visit (baseline, week 1, week 2, week 3, week 4, week 6, and week 8).
# Key eligibility for the study included being 18-65 years old, having major depression as a primary diagnosis by the Structured Clinical Interview for DSM-IV Axis I Disorders^1, at least moderate depression severity with a score≥14 on the Quick Inventory of Depressive Symptomatology-Self Report (QIDS-SR) at screening and randomization, a major depressive episode beginning before age 30, either a chronic recurrent episode (duration≥2 years) or recurrent MDD (at least 2 lifetime episodes), and no antidepressant failure during the current episode. […] In addition, 40 healthy individuals who were medically and psychiatrically healthy, were recruited across the four sites, and assessed in a similar manner as the patients. […]
# [3] = Moderation of outcome by left amygdala PPI task-related connectivity; assay type: in vivo, human
# Procedure: Context-dependent connectivity analyses were conducted using the generalized PPI toolbox^1. A “seed” region was defined volumetrically using an anatomical region of interest mask of the left and right amygdala. Each amygdala mask was then deformed from Montereal Neurological Institute standard space into the participant's native anatomical space using the inverse warp parameter determined during spatial normalization of the preprocessing stage. […] The interaction of the time series of behavioral parameters of interest, i.e. the task conditions utilized in the first-level activation analysis, with the deconcolved “neuronal” time series were calculated for each task condition of interest, thus producing a fully specified statistical model modeling the interaction of each task condition with the observed BOLD time series (a psychophysiological interaction). […] The first-level beta weights for the contrasts of conditions of interest were then calculated on the individual level, and individual-level generalized PPI beta maps were then carried to a second level linear mixed model analysis conducted in R using the fmri^2 and nlme^3 packages to assess voxelwise task-dependent connectivity moderation effects (as in the activation analyses).
smiles,measurement,setting,value
CN[C@H]1CC[C@@H](c2ccc(Cl)c(Cl)c2)c2ccccc21 [sertraline],endpoint symptom difference Cohen's d,[1]; anterior insula,0.53
same,remission NNT,[1]; anterior insula,6.3
same,endpoint symptom difference Cohen's d,[1]; dorsal anterior cingulate,0.79
same,remission NNT,[1]; dorsal anterior cingulate,3
same,endpoint symptom difference Cohen's d,[1]; frontopolar cortex,0.85
same,remission NNT,[1]; frontopolar cortex,2.9
same,benefit of sertraline over placebo,[1]; patients in bottom half of emotion-regulation capacity,no benefit
same,benefit of sertraline over placebo,[1]; patients in bottom quartile of emotional conflict regulatory ability,no benefit
same,number needed to treat,[1]; patients in top half of emotion-regulation capacity,< 5
same,number needed to treat versus placebo,[1]; patients in top quartile of emotional conflict regulatory ability,< 4
same,"endpoint symptom reduction with sertraline versus placebo, Cohen's d","[2]; HAMD17, linear mixed model, 8 weeks",0.24
same,remission number needed to treat (NNT),[2]; sertraline versus placebo,20.1
same,symptom change with sertraline versus placebo,[3]; left amygdala PPI connectivity to dorsal anterior cingulate above median,failed to show any difference
same,symptom change with sertraline compared to placebo,[3]; left amygdala PPI connectivity to dorsal anterior cingulate below median,steep decline in symptoms
